Test results: patent US12390435B2, “Electrophiles and electrophile pro-drugs as RAD51 inhibitors” (University of Pittsburgh—Of the Commonwealth System of …, priority 2018, dated 2025)

Tests used:
[1] = test system: RAD51 foci in MDA-MB-231 cells; experiment: RAD51 foci and γH2AX immunofluorescence after 5 Gy IR; assay type: cell-based
Procedure: To analyze RAD51 foci formation, 10,000 cells were plated to CultureWell 16-well chambered cover glass (MIDSCI) coated with poly-L-lysine (Sigma) and incubated overnight in 5% FBS media. […] Cells were fixed with 10% formalin for 20 min at 4° C. and immunostained with RAD51 (Santa Cruz) or γH2AX (EMD Biosciences) antibodies. Z-stack images were acquired using a Nikon AIR confocal microscope with 60× oil objective and acquisition performed using NIS elements software. Quantification of z-stacks and foci were completed using ImageJ software.
Data represent the mean±SEM from 3 independent experiments unless otherwise noted. A p value<0.05 was considered statistically significant. Non-linear curves were generated in GraphPad Prism 7.0 (GraphPad Software, La Jolla, CA, USA) for statistical analysis. EC50 values and standard error were calculated from three independent experiments utilizing a non-linear dose response variable slope model. Significance was tested by one-way ANOVA for multiple groups with Tukey posttest or by t-test when groups were less than three. RAD51 foci number was analyzed with ImageJ. Nuclear boundaries were individually identified in more than 50 cells per treatment group in three independent experiments.

[2] = test system: MDA-MB-231 and MDA-MB-468 cells; experiment: MTT viability / cytotoxicity; assay type: cell-based
IKKβ = experiment: TNFα-induced IKKβ phosphorylation, IκBα phosphorylation and degradation; assay type: cell-based
Procedure: All studies used two TNBC cell lines, MDA-MB-231 and MDA-MB-468. […] For IκBα degradation, cells were treated as described above and stimulated with 20 ng/mL TNFα for 10 min.
(§1) Western blotting was performed. 20-60 μg of total lysates per lane were loaded on 7%, 10%, or 12% SDS-PAGE and transferred onto nitrocellulose or polyvinylidene difluoride membranes (Bio-Rad). The membranes were probed with primary antibodies against caspase-3, multi-drug resistance protein-1 (MRP1), poly [ADP ribose] polymerase-1 (PARP-1), ubiquitin, RelA; cyclin D1, p21, caspase-9, MRP4, IKKβ, pIKKβ, IκBα, or pIκBα (Cell Signaling); caspase-8 (R&D Systems). Samples were normalized to β-actin (Sigma-Aldrich) or GAPDH (Trevigen).

NF-κB target genes = experiment: qPCR / RT2 profiler array of NF-κB target genes; assay type: cell-based, human; details: 5 μM
Procedure: Total RNA samples of tissues or cells were extracted using TRIZOL reagents according to the manufacturer's instructions (Invitrogen). Total RNA (1 μg) was reverse transcribed using the iScript cDNA kit (Bio-Rad) according to manufacturer instructions. cDNA (25 ng) was used for each subsequent quantitative real-time PCR (qRT-PCR) reaction. All qRT-PCR was performed on the StepOne PLUS PCR system (Thermo Fisher Scientific) using TaqMan gene expression assays. Fold change was calculated using the ΔΔCt method with 18S ribosomal RNA or human β-actin RNA serving as the internal control. Three individual experiments were done, and statistical significance was determined by one-way analysis of variance followed by Tukey post-test. […] The expression of 84 human NF-κB target genes was analyzed with 96-well plate format as instructed in the manufacturer's handbook (Qiagen). PCR amplification was conducted by StepOne PLUS PCR system and fold change of gene expression was calculated according to the manufacturer's instruction.

MDA-MB-231 cells = experiment: Cell growth assay (FluoReporter dsDNA); assay type: cell-based; details: Homo sapiens, MDA-MB-231; 48 hr, 0-15 μM
Procedure: Cells were plated at a cell density of 5000 cells per well in 96-well plates. […] Cells were counted using the FluoReporter dsDNA quantitation kit (Molecular Probes) according to the manufacturer's instructions. Fluorescence was measured using a SpectraMax M2 plate reader (Molecular Devices). […] Three individual experiments were done (n=5/each), and statistical comparison between two cell lines across doses was determined by two-way analysis of variance followed by Tukey post-test.

[3] = test system: single strand annealing (SSA); experiment: GFP reporter assay for single strand annealing; assay type: cell-based; details: 5 μM, 48 h
Procedure: FIG. 13B is GFP-reporter assays examining effects of OA-NO2 on different DNA DSB repair pathways described in FIG. 14A. U2OS cells containing the GFP-reporter construct DR-GFP were transfected with an I-SceI plasmid and treated with vehicle (gray), 5 μM OA (green) or 5 μM OA-NO2 (red). The number of GFP positive cells were detected by flow cytometry at 48 h. GFP-reporter measuring NHEJ: n=3, SSA: n=3; HDR: n=3; Alt-EJ: n=1.
Measurements of NHEJ, HR, Alt-EJ and SSA assays were performed as previously described. HR activity was measured by counting GFP-positive cells by flow cytometry at the MWRI flow cytometry core using a BD LSRII (BD Biosciences). RAD51 overexpressing cells were generated by stable transfection of pLVX RAD51 IRES Neo and selection with geneticin (Invitrogen).

RAD51 [4] = target: T1, RAD51 (Homo sapiens, UniProt Q06609); experiment: RAD51 ssDNA binding, fluorescence polarization; assay type: biochemical; details: 5 or 10 μM, ATP and Alexa Fluor 488 DNA
T1 construct: purchased Abcam
T1 sequence (Q06609 whole entry): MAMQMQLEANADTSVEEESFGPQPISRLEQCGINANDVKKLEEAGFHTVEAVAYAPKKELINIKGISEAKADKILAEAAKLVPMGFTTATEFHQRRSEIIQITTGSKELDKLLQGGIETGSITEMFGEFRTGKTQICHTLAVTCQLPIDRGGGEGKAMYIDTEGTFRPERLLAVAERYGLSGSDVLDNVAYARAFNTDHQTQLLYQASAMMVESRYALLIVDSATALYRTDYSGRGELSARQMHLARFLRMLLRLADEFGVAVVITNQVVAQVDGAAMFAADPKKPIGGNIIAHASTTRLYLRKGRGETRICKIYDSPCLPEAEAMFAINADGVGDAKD
Procedure: Reactions were performed in black 96-well plates (Greiner) in 50 μL reaction volumes in 20 mM HEPES pH 7.5, 10 mM MgCl2, 0.25 μM BSA, 2% glycerol, 30 mM NaCl and 4% DMSO. […] 2 mM ATP and 100 nM 5′-Alexa Fluor 488 ssDNA poly-dT (Integrated DNA technologies) were added to the reaction and incubated for 90 min at 37° C. DNA binding was measured using fluorescence polarization (FP) on a Tecan Spark 20M (ex/em 480 nm/535 nm). Compound fluorescence quenching was detected as above in the absence of RAD51 protein.

RelA in MCF-10A cells = experiment: RelA protein level; assay type: cell-based; details: 5 μM, 24 hr
Procedure: as §1

RAD51 [5] = experiment: Biotinylated nitro fatty acid affinity capture of RAD51; assay type: binding; details: 293T cells expressing WT or mutant RAD51
Procedure: HEK 293T were transiently transfected with Fugene 6 (Promega) and 5 μg RAD51 expressing vectors (wild-type, C312S, or C319S). […] Cells were prepared as above. […] Detection of RAD51 was accomplished by immunoblot with RAD51 antibody (1:2000) with actin antibody (1:3000) probed as loading control.

SMILES: CCCCCCCCC(=CCCCCCCCC(=O)O)[N+](=O)[O-] [NO2-OA, 10-nitro-octadec-9-enoic acid]
- RAD51 foci formation ([1]; 5 μM, 6 h): inhibited RAD51 foci formation
- nuclear γH2AX localization ([1]; versus vehicle): significantly increased nuclear γH2AX localization
- cell viability (MTT) [2]: significantly reduced the viability
- cytotoxicity ([2]; 5 μM, up to 24 hr, any cell line): No cytotoxicity was detectable
- TNFα-induced IKKβ phosphorylation (IKKβ; NO2-OA 5 μM or BAY11-7082 10 μM 2 hr, TNFα 20 ng/mL 5 min): diminished
- degradation of IκBα following TNFα stimulation (IKKβ; TNFα 20 ng/mL, 10 min): inhibited the degradation of IκBβ
- IκBα phosphorylation (IKKβ; with proteasome inhibitor MG-132 10 μM): decreased IκBβ phosphorylation
- TNFα-induced expression of ICAM-1 and uPA genes (NF-κB target genes; MDA-MB-231 or MDA-MB-468 cells, TNFα 20 ng/mL): suppression of TNFα-induced expression of ICAM-1 and uPA genes
- mRNA expression of NF-κB target genes (PCR array) (NF-κB target genes; MDA-MB-468 cells, 24 hr): decreased the mRNA expression of multiple NF-κB target genes
- IC50 (MDA-MB-231 cells): 2.7 ± 0.11 µM
- effect on single strand annealing [3]: also inhibits single strand annealing
- relative fluorescence polarization of RAD51 with ssDNA (RAD51 [4]): decreased the relative polarization of RAD51
- RelA protein levels (RelA in MCF-10A cells): not altered
- RAD51 cysteine targeted (Cys312Ser, Cys319Ser mutants) (RAD51 [5]): preferential reaction of NO2-OA with Cys319
